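1) Cells in 96-well plates. 2) Compound, 48 h, 5 concentrations. 3) Linear interpolation between surrounding doses. 4) Unreached endpoint = highest concentration. Abbreviation: GI50, concentration required for 50% inhibition of growth.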 Calls of active or inactive are those of the source. No stated cut-off is given here; in the data, active = GI50 up to about 1.1 µM and inactive = higher.
Columns and labels:
Assay in all cases: NCI tumour cell line growth inhibition, 48 h
MCF7 = system: MCF7
CCRF-CEM = system: CCRF-CEM
M14 = system: M14
SF-539 = system: SF-539
SW-620 = system: SW-620
OVCAR-5 = system: OVCAR-5
KM12 = system: KM12
Malme-3M = system: Malme-3M
HCT-116 = system: HCT-116
SR = system: SR
HCC 2998 = system: HCC 2998
IGROV-1 = system: IGROV-1
786-0 = system: 786-0
RXF 393 = system: RXF 393
PC-3 = system: PC-3
ACHN = system: ACHN
HT-29 = system: HT-29
MDA-MB-231 = system: MDA-MB-231
DU-145 = system: DU-145
SK-MEL-28 = system: SK-MEL-28

Row | Structure (SMILES) | GI50 (MCF7) | GI50 (CCRF-CEM) | GI50 (M14) | GI50 (SF-539) | GI50 (SW-620) | GI50 (OVCAR-5) | GI50 (KM12) | GI50 (Malme-3M) | GI50 (HCT-116) | GI50 (SR) | GI50 (HCC 2998) | GI50 (IGROV-1) | GI50 (786-0) | GI50 (RXF 393) | GI50 (PC-3) | GI50 (ACHN) | GI50 (HT-29) | GI50 (MDA-MB-231) | GI50 (DU-145) | GI50 (SK-MEL-28)
1 | Cn1c(=O)c2c(no[n+]2[O-])c2ccccc21 | 24.7 µM (inactive) | 12.8 µM (inactive) | 12.4 µM (inactive) | 25.8 µM (inactive) | 20 µM (inactive) | > 10 µM (inactive) | 12.4 µM (inactive) | 14.2 µM (inactive) | 12.9 µM (inactive) | 5 µM (inactive) | 12.9 µM (inactive) | 7.24 µM (inactive) | 15.5 µM (inactive) | 19.9 µM (inactive) | 24.9 µM (inactive) | 26.5 µM (inactive) | 17.5 µM (inactive) | 19.7 µM (inactive) | – | –
2 | Cc1cccc(/C(Br)=C2/OC(=O)c3ccccc32)c1 | > 100 µM (inactive) | > 100 µM (inactive) | > 100 µM (inactive) | > 100 µM (inactive) | > 100 µM (inactive) | > 100 µM (inactive) | > 100 µM (inactive) | > 100 µM (inactive) | > 100 µM (inactive) | > 100 µM (inactive) | > 100 µM (inactive) | > 100 µM (inactive) | > 100 µM (inactive) | > 100 µM (inactive) | > 100 µM (inactive) | > 100 µM (inactive) | > 100 µM (inactive) | – | > 100 µM (inactive) | > 100 µM (inactive)
3 | CC[C@@H](O)C[C@H]1CCC[C@@]2(C[C@@H]3OC(=O)/C=C/[C@@](C)(O)[C@@H](O)[C@H](C)[C@@H](O)[C@H](OC4CCC(N(C)C)C(C)O4)[C@@H](O)[C@](C)(O)CCCCC/C=C/[C@@H]4CC(C)(C)O[C@@]4(O)C[C@H](O2)[C@H]3C)O1 (some centres not stated) | < 0.01 µM (active) | 15.9 µM (inactive) | 1.85 µM (inactive) | 10.9 µM (inactive) | 16.6 µM (inactive) | 14.8 µM (inactive) | 0.34 µM (active) | 1.56 µM (inactive) | 1.54 µM (inactive) | 1.06 µM (active) | 2.4 µM (inactive) | 6.44 µM (inactive) | 11.3 µM (inactive) | 14.7 µM (inactive) | – | < 0.01 µM (active) | 3.49 µM (inactive) | 17.5 µM (inactive) | 11.3 µM (inactive) | 15.8 µM (inactive)
4 | C/C=C\C(CC(=O)NCCC1CN(C(=O)c2ccccc2)c2ccccc21)CC(=O)OC (configuration not stated) | > 100 µM (inactive) | – | > 100 µM (inactive) | – | > 100 µM (inactive) | > 100 µM (inactive) | > 100 µM (inactive) | > 100 µM (inactive) | > 100 µM (inactive) | – | > 100 µM (inactive) | > 100 µM (inactive) | > 100 µM (inactive) | > 100 µM (inactive) | > 100 µM (inactive) | > 100 µM (inactive) | > 100 µM (inactive) | > 100 µM (inactive) | > 100 µM (inactive) | > 100 µM (inactive)
5 | NC(CCSCC(F)F)C(=O)O (configuration not stated) | – | > 100 µM (inactive) | > 100 µM (inactive) | > 100 µM (inactive) | > 100 µM (inactive) | > 100 µM (inactive) | > 100 µM (inactive) | > 100 µM (inactive) | > 100 µM (inactive) | > 100 µM (inactive) | > 100 µM (inactive) | > 100 µM (inactive) | > 100 µM (inactive) | > 100 µM (inactive) | – | > 100 µM (inactive) | > 100 µM (inactive) | – | – | > 100 µM (inactive)
6 | O=C(COc1ccc(OCC(=O)N2C(=O)CC(=O)N(c3ccc(Cl)cc3)C2=S)cc1)N1C(=O)CC(=O)N(c2ccc(Cl)cc2)C1=S | 35.1 µM (inactive) | – | 32 µM (inactive) | – | 53.1 µM (inactive) | 12.9 µM (inactive) | 15.7 µM (inactive) | 3.26 µM (inactive) | 10.1 µM (inactive) | – | 28.5 µM (inactive) | 10.8 µM (inactive) | 19.6 µM (inactive) | 31.6 µM (inactive) | 29.3 µM (inactive) | 27.4 µM (inactive) | 24.6 µM (inactive) | 27.9 µM (inactive) | 31.6 µM (inactive) | 50.4 µM (inactive)
7 | CC(C)(C)C1CCP(=O)(c2ccccc2)CC1 (configuration not stated) | – | > 100 µM (inactive) | > 100 µM (inactive) | > 100 µM (inactive) | > 100 µM (inactive) | > 100 µM (inactive) | > 100 µM (inactive) | > 100 µM (inactive) | > 100 µM (inactive) | > 100 µM (inactive) | > 100 µM (inactive) | > 100 µM (inactive) | > 100 µM (inactive) | > 100 µM (inactive) | – | > 100 µM (inactive) | > 100 µM (inactive) | – | – | > 100 µM (inactive)
8 | O=C1CCCCC/C1=C\c1ccccc1 | – | – | > 100 µM (inactive) | – | > 100 µM (inactive) | > 100 µM (inactive) | > 100 µM (inactive) | > 100 µM (inactive) | > 100 µM (inactive) | > 100 µM (inactive) | > 100 µM (inactive) | > 100 µM (inactive) | > 100 µM (inactive) | – | > 100 µM (inactive) | > 100 µM (inactive) | > 100 µM (inactive) | > 100 µM (inactive) | > 100 µM (inactive) | > 100 µM (inactive)
9 | COc1cc2c[n+]3ccc4cc(OC)c(OC)cc4c3cc2cc1O | – | > 100 µM (inactive) | > 100 µM (inactive) | > 100 µM (inactive) | > 100 µM (inactive) | > 100 µM (inactive) | > 100 µM (inactive) | > 100 µM (inactive) | > 100 µM (inactive) | > 100 µM (inactive) | > 100 µM (inactive) | > 100 µM (inactive) | > 100 µM (inactive) | > 100 µM (inactive) | – | > 100 µM (inactive) | > 100 µM (inactive) | – | – | > 100 µM (inactive)
10 | COc1ccccc1/N=N/c1c(O)c(S(=O)(=O)O)cc2cc(S(=O)(=O)O)ccc12 | – | > 100 µM (inactive) | > 100 µM (inactive) | – | > 100 µM (inactive) | > 100 µM (inactive) | > 100 µM (inactive) | > 100 µM (inactive) | > 100 µM (inactive) | > 100 µM (inactive) | – | > 100 µM (inactive) | > 100 µM (inactive) | > 100 µM (inactive) | > 100 µM (inactive) | > 100 µM (inactive) | > 100 µM (inactive) | > 100 µM (inactive) | > 100 µM (inactive) | > 100 µM (inactive)
11 | Cc1ccc(S(=O)(=O)OC2C(C3COC(C)(C)O3)OC3OC(C)(C)OC32)cc1 (configuration not stated) | – | > 100 µM (inactive) | > 100 µM (inactive) | – | > 100 µM (inactive) | > 100 µM (inactive) | > 100 µM (inactive) | > 100 µM (inactive) | > 100 µM (inactive) | > 100 µM (inactive) | > 100 µM (inactive) | > 100 µM (inactive) | > 100 µM (inactive) | > 100 µM (inactive) | > 100 µM (inactive) | > 100 µM (inactive) | > 100 µM (inactive) | > 100 µM (inactive) | > 100 µM (inactive) | > 100 µM (inactive)
12 | CC(=O)Oc1ccc2c3c1[C@@H]1O[C@@H]1c1cccc(c1-3)[C@@H]1O[C@H]21 | 2.55 µM (inactive) | 0.601 µM (active) | 1.72 µM (inactive) | – | 1.14 µM (inactive) | 1.86 µM (inactive) | 2.05 µM (inactive) | 1.86 µM (inactive) | 1.66 µM (inactive) | – | 2 µM (inactive) | – | 1.48 µM (inactive) | 1.36 µM (inactive) | 2.33 µM (inactive) | 1.84 µM (inactive) | 1.81 µM (inactive) | 2.02 µM (inactive) | 1.91 µM (inactive) | 1.96 µM (inactive)
13 | c1ccc(CCCN2C3CCC2CN(CCOC(c2ccccc2)c2ccccc2)C3)cc1 | 12.6 µM (inactive) | 9.82 µM (inactive) | 4.99 µM (inactive) | 8.39 µM (inactive) | 15.6 µM (inactive) | 12.7 µM (inactive) | 5.66 µM (inactive) | 12.5 µM (inactive) | 7.05 µM (inactive) | – | 5.21 µM (inactive) | 13.8 µM (inactive) | 10 µM (inactive) | – | 6.43 µM (inactive) | 13.4 µM (inactive) | 3.58 µM (inactive) | 8.3 µM (inactive) | 16.4 µM (inactive) | 13.3 µM (inactive)
14 | CC(C)(C)C1=CC(O)(c2c3ccccc3c(C3(O)C=C(C(C)(C)C)C(=O)C(C(C)(C)C)=C3)c3ccccc23)C=C(C(C)(C)C)C1=O | > 100 µM (inactive) | 50.2 µM (inactive) | > 100 µM (inactive) | > 100 µM (inactive) | > 100 µM (inactive) | > 100 µM (inactive) | > 100 µM (inactive) | > 100 µM (inactive) | > 100 µM (inactive) | – | – | > 100 µM (inactive) | > 100 µM (inactive) | – | > 100 µM (inactive) | > 100 µM (inactive) | > 100 µM (inactive) | 27 µM (inactive) | > 100 µM (inactive) | > 100 µM (inactive)
15 | COc1cc2c(cc1OC)-c1c(cc(OC)c(OC)c1OC)C2=O | – | 81.7 µM (inactive) | > 100 µM (inactive) | > 100 µM (inactive) | > 100 µM (inactive) | > 100 µM (inactive) | > 100 µM (inactive) | > 100 µM (inactive) | > 100 µM (inactive) | > 100 µM (inactive) | > 100 µM (inactive) | > 100 µM (inactive) | > 100 µM (inactive) | > 100 µM (inactive) | – | > 100 µM (inactive) | > 100 µM (inactive) | – | – | > 100 µM (inactive)

Source: ChEMBL document CHEMBL1201862, “PubChem BioAssay data set” (2004)
